Where “and” joins values, the source holds several entries; their conditions need not be identical. Equal values may be shown once.
Tests used:
CD-1 female mice [1] = assay: mouse tail-flick test (antinociception, %MPE); type: in vivo; conditions: for antinociception (%MPE): at 30 min
Excerpt: Its antinociception (analgesia) in vivo had been investigated using the mouse tail flick test. The mouse tail-flick test is a well-known experimental model to verify the analgesic activity of potential moderate and severe pain relievers including muscarinic agonists (Chau, T. T: Analgesic Testing in Animal Models. Pharmacological Methods in the Control of Inflammation. 195-212. 1989, Alan R. Liss. Inc.). […] Other possible muscarinic agonist activities, such as tremor, sedation, salivation, and hypothermia were observed simultaneously.
(§1) Experiments were carried out using a commercially available tail-flick analgesia meter (model TF-6 analgesia meter, Emdie Instrument Company, Maidens, Va., USA). […] A 10-second cutoff time was used as the maximum latency to avoid tissue damage.
(§2) Control animals received the corresponding vehicle(s) by the same route of administration.
The percentage of maximum possible effect (%MPE) was calculated as follows:
%MPE=[(postdrug latency−predrug latency)÷(cutoff time−predrug latency)]×100%.
(§3) All results were expressed as mean±SEM. […] This comparison was carried out at the peak of antinociception (30 minutes). Student's T test (one tailed analysis)(Microsoft Excel 97, Microsoft Corporation, Redmond, Wash., USA) was used to analyse the statistical significance between the two groups. The value of p<0.05 was considered as statistically significant.
as §1, §2
as §3, with “minutes). One tailed” for “minutes).”, “(Microsoft” for “(one tailed analysis)(Microsoft”, “[…],” for “Redmond,”, “analysis” for “analyse”

CD-1 female mice [2] = assay: observation of muscarinic side effects (tremor, sedation, salivation); type: in vivo, mouse; conditions: at its ED50 dose
Description: (§4) Observations of tremor, sedation, and salivation were made by close visual inspection of the mice at 5, 15, 30 and 60 minutes after injection of 4-s-[4-propylsulfanyl)-1,2,5-thiadiazol-3-yl]-1-azatricyclo[3.3.1.1<3,7>]decane hydrochloride. Tremor and sedation were scored as +(indicated visible tremor or sedation) or −(indicated non-visible tremor or sedation). Salivation was scored according to the following scale: 0, no sign of saliva within animal's mouth; 1, evidence of saliva in animal's mouth, but not on animal's muzzle; and 2, evidence of saliva in animal's mouth and on muzzle. No other muscarinic receptor mediated activities were observed.
as §4, with “4-s-[4-(propylsulfanyl)-1,2,5-thiadiazol-3-yl]-1-azatricyclo[3.3.1.1<3,7>]decane” for “4-s-[4-propylsulfanyl)-1,2,5-thiadiazol-3-yl]-1-azatricyclo[3.3.1.1<3,7>]decane”

SMILES: CCCSc1nsnc1[C@H]1[C@@H]2C[C@@H]3C[C@H]1CN(C3)C2.Cl [4-s-[4-(propylsulfanyl)-1,2,5-thiadiazol-3-yl]-1-azatricyclo[3.3.1.1<3,7>]decane hydrochloride]
- antinociception (%MPE) (CD-1 female mice [1]; 0.03 mg/kg sc alone, hydrochloride): 19%
- antinociception (%MPE) (CD-1 female mice [1]; 0.05 mg/kg sc alone): 38%
- antinociceptive potency relative to morphine (CD-1 female mice [1]; mouse tail-flick test, more potent than morphine): 300-1000 fold
- incidence of muscarinic side effects (CD-1 female mice [2]): low incidence

SMILES: CS(=O)(=O)Nc1ccc([N+](=O)[O-])cc1OC1CCCCC1 [NS-398]
- antinociceptive effect (CD-1 female mice [1]; NS-398 0.05 mg/kg ip alone): without antinociceptive effect

SMILES: CC(=O)Nc1ccc(O)cc1 [acetaminophen]
- antinociceptive effect (CD-1 female mice [1]; acetaminophen 60 mg/kg ip alone): without antinociceptive effect

SMILES: CC(C)Cc1ccc(C(C)C(=O)O)cc1 (stereo not drawn) [ibuprofen]
- antinociceptive effect (CD-1 female mice [1]; ibuprofen 50 mg/kg ip alone): without antinociceptive effect

SMILES: CN1CC[C@]23c4c5ccc(O)c4O[C@H]2[C@@H](O)C=C[C@H]3[C@H]1C5 [morphine]
- antinociception (%MPE) (CD-1 female mice [1]; morphine 3 mg/kg sc alone): 13% and 25%
- antinociception (%MPE) (CD-1 female mice [1]; morphine 5.0 mg/kg sc alone): 35%
